Measured values from PubChem BioAssay AID330 (DTP/NCI, 2004).
Toxic doses and inconclusive results are not listed. How the source made its calls: active means survival T/C of 150% or more; inactive means T/C below 125% in these data.

Test system: P388 leukemia ip, CD2F1 mice, survival T/C
Experiment: NCI In Vivo Anticancer Drug Screen. Data for tumor model P388 Leukemia (intraperitoneal) in CD2F1 (CDF1) mice
Conditions: endpoint: median survival time, higher = longer survival
Summary of the method: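 Mice carrying the transplanted tumor received test compound or vehicle. Survival was recorded in each group, and the value is the treated-group measurement divided by that of the vehicle-treated control group.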

[1] = dose: 100.0 mg/kg/injection, schedule: Q01DX001 (ip), vehicle: saline with Tween-80
[2] = dose: 200.0 mg/kg/injection, schedule: Q01DX001 (ip), vehicle: saline with Tween-80
[3] = dose: 400.0 mg/kg/injection, schedule: Q01DX001 (ip), vehicle: saline with Tween-80
[4] = dose: 60.0 mg/kg/injection, schedule: Q01DX005 (ip), vehicle: saline with Tween-80
[5] = dose: 120.0 mg/kg/injection, schedule: Q01DX005 (ip), vehicle: saline with Tween-80
[6] = dose: 240.0 mg/kg/injection, schedule: Q01DX005 (ip), vehicle: saline with Tween-80
[7] = dose: 50.0 mg/kg/injection, schedule: Q01DX005 (ip), vehicle: saline
[8] = dose: 100.0 mg/kg/injection, schedule: Q01DX005 (ip), vehicle: saline
[9] = dose: 200.0 mg/kg/injection, schedule: Q01DX005 (ip), vehicle: saline
[10] = dose: 50.0 mg/kg/injection, schedule: Q01DX005 (ip), vehicle: Klucel (hydroxypropylcellulose) (HPC)
[11] = dose: 100.0 mg/kg/injection, schedule: Q01DX005 (ip), vehicle: Klucel (hydroxypropylcellulose) (HPC)
[12] = dose: 200.0 mg/kg/injection, schedule: Q01DX005 (ip), vehicle: Klucel (hydroxypropylcellulose) (HPC)

Measured: T/C

O=C(N/N=C/c1cc(Cl)cc(Cl)c1[O-])c1ccccc1.O=C(N/N=C/c1cc(Cl)cc(Cl)c1[O-])c1ccccc1.[Ni+2]
inactive: [1] 93 % of control | [2] 92 % of control | [3] 107 % of control

O=c1c2cc(O)ccc2oc2c(CO)ccc(NCCN3CCCC3)c12
inactive: [1] 93 % of control | [2] 100 % of control | [3] 106 % of control

CC(C)COC(=O)C(CC(C)C)NC(=O)C(C)O (stereo not given)
inactive: dose: 50.0 mg/kg/injection, schedule: Q01DX001 (ip), vehicle: suspension in saline 103 % of control | [4] 97 % of control | dose: 100.0 mg/kg/injection, schedule: Q01DX001 (ip), vehicle: suspension in saline 92 % of control | [5] 101 % of control | dose: 200.0 mg/kg/injection, schedule: Q01DX001 (ip), vehicle: suspension in saline 103 % of control | [6] 100 % of control | dose: 400.0 mg/kg/injection, schedule: Q01DX001 (ip), vehicle: suspension in saline 104 % of control

CC(=O)O[C@H]1[C@@H](OC(C)=O)[C@]2(C)[C@H](CC[C@@]3(C)[C@H](c4ccoc4)C[C@H]4O[C@@]423)[C@@]2(C)C=CC(=O)OC(C)(C)[C@H]12
inactive: dose: 1.25 mg/kg/injection, schedule: Q04DX003 (ip), vehicle: Klucel (hydroxypropylcellulose) (HPC) 94 % of control | dose: 2.5 mg/kg/injection, schedule: Q04DX003 (ip), vehicle: Klucel (hydroxypropylcellulose) (HPC) 88 % of control | dose: 5.0 mg/kg/injection, schedule: Q04DX003 (ip), vehicle: Klucel (hydroxypropylcellulose) (HPC) 93 % of control | dose: 10.0 mg/kg/injection, schedule: Q04DX003 (ip), vehicle: Klucel (hydroxypropylcellulose) (HPC) 88 % of control

COC(=O)c1c(-c2ccc(OC)cc2)c(-c2ccc(OC)cc2)[nH]c(=O)c1C#N
inactive: [4] 100 % of control | [5] 100 % of control | [6] 99 % of control

O=[N+]([O-])c1ccc2c(c1)Cc1cc(N(CCCl)CCCl)ccc1-2
inactive: dose: 50.0 mg/kg/injection, schedule: Q01DX009 (ip), vehicle: Klucel (hydroxypropylcellulose) (HPC) 94 % of control | dose: 100.0 mg/kg/injection, schedule: Q01DX009 (ip), vehicle: Klucel (hydroxypropylcellulose) (HPC) 92 % of control | dose: 200.0 mg/kg/injection, schedule: Q01DX009 (ip), vehicle: Klucel (hydroxypropylcellulose) (HPC) 94 % of control

CC(=O)/C(=C\c1ccc(C)cc1)C(=O)CCN(C)C
inactive: [7] 108 % of control | [8] 108 % of control | [9] 111 % of control

O=C(O)CCCCCSCCCCCCSCCCCCC(=O)O
inactive: [10] 102 % of control | [11] 105 % of control | [12] 100 % of control

COc1ccc2c(c1OC)C1NCCc3cc4c(cc3C1(OC)C2=O)OCO4 (stereo not given)
inactive: dose: 25.0 mg/kg/injection, schedule: Q01DX005 (ip), vehicle: distilled water + Tween-80 + alcohol 109 % of control | dose: 50.0 mg/kg/injection, schedule: Q01DX005 (ip), vehicle: distilled water + Tween-80 + alcohol 104 % of control | dose: 100.0 mg/kg/injection, schedule: Q01DX005 (ip), vehicle: distilled water + Tween-80 + alcohol 107 % of control | dose: 200.0 mg/kg/injection, schedule: Q01DX005 (ip), vehicle: distilled water + Tween-80 + alcohol 103 % of control

C=CCNC(=S)N/N=C(\CCC)c1ccccn1
inactive: dose: 50.0 mg/kg/injection, schedule: Q01DX005 (ip), vehicle: saline with Tween-80 114 % of control | dose: 100.0 mg/kg/injection, schedule: Q01DX005 (ip), vehicle: saline with Tween-80 121 % of control

CC(=O)OC(=O)c1c(OC(C)=O)cc(C)c2c1CC(C1(C)CO1)CC2 (stereo not given)
inactive: dose: 1.88 mg/kg/injection, schedule: Q01DX005 (ip), vehicle: Klucel (hydroxypropylcellulose) (HPC) 100 % of control | dose: 3.75 mg/kg/injection, schedule: Q01DX005 (ip), vehicle: Klucel (hydroxypropylcellulose) (HPC) 99 % of control | dose: 7.5 mg/kg/injection, schedule: Q01DX005 (ip), vehicle: Klucel (hydroxypropylcellulose) (HPC) 100 % of control | dose: 15.0 mg/kg/injection, schedule: Q01DX005 (ip), vehicle: Klucel (hydroxypropylcellulose) (HPC) 100 % of control | dose: 30.0 mg/kg/injection, schedule: Q01DX005 (ip), vehicle: Klucel (hydroxypropylcellulose) (HPC) 101 % of control

CC1(C)CC(OS(=O)(=O)c2ccccc2)CC(C)(C)N1O
inactive: dose: 100.0 mg/kg/injection, schedule: Q01DX001 (ip), vehicle: Klucel (hydroxypropylcellulose) (HPC) 97 % of control | dose: 200.0 mg/kg/injection, schedule: Q01DX001 (ip), vehicle: Klucel (hydroxypropylcellulose) (HPC) 97 % of control | dose: 400.0 mg/kg/injection, schedule: Q01DX001 (ip), vehicle: Klucel (hydroxypropylcellulose) (HPC) 97 % of control

CNC(=O)OCc1cocc1COC(=O)NC
inactive: dose: 12.5 mg/kg/injection, schedule: Q01DX009 (ip), vehicle: distilled water + Tween-80 106 % of control | dose: 25.0 mg/kg/injection, schedule: Q01DX009 (ip), vehicle: distilled water + Tween-80 101 % of control | dose: 50.0 mg/kg/injection, schedule: Q01DX009 (ip), vehicle: distilled water + Tween-80 109 % of control | dose: 100.0 mg/kg/injection, schedule: Q01DX009 (ip), vehicle: distilled water + Tween-80 117 % of control

O=C(O)CC(Nc1ccc([N+](=O)[O-])cc1[N+](=O)[O-])C(=O)O (stereo not given)
inactive: [7] 100 % of control | [8] 106 % of control | [9] 103 % of control

Cc1ccnc(-n2c(N)cc(=O)[nH]c2=S)c1
inactive: dose: 50.0 mg/kg/injection, schedule: Q01DX001 (ip), vehicle: saline with Tween-80 86 % of control | [1] 118 % of control | [2] 100 % of control

COc1ccc2c(c1)c(COC(C)=O)c(C)c[n+]2[O-]
inactive: [10] 100 % of control | [11] 104 % of control | [12] 88 % of control

COc1ccc(C(=NO)c2ccc(OC)cc2)cc1
inactive: dose: 100.0 mg/kg/injection, schedule: Q04DX003 (ip), vehicle: saline 100 % of control | dose: 200.0 mg/kg/injection, schedule: Q04DX003 (ip), vehicle: saline 100 % of control | dose: 400.0 mg/kg/injection, schedule: Q04DX003 (ip), vehicle: saline 104 % of control

O=C(c1ccncc1)c1cccc(Cl)c1
inactive: dose: 50.0 mg/kg/injection, schedule: Q01DX009 (ip), vehicle: saline with Tween-80 103 % of control | dose: 100.0 mg/kg/injection, schedule: Q01DX009 (ip), vehicle: saline with Tween-80 108 % of control | dose: 200.0 mg/kg/injection, schedule: Q01DX009 (ip), vehicle: saline with Tween-80 104 % of control

O=C1SC/C(=N\N=c2/scc(-c3ccc(Br)cc3)n2-c2ccccc2)N1Cc1ccccc1
inactive: dose: 100.0 mg/kg/injection, schedule: Q04DX002 (ip), vehicle: Klucel (hydroxypropylcellulose) (HPC) 92 % of control | dose: 200.0 mg/kg/injection, schedule: Q04DX002 (ip), vehicle: Klucel (hydroxypropylcellulose) (HPC) 91 % of control | dose: 400.0 mg/kg/injection, schedule: Q04DX002 (ip), vehicle: Klucel (hydroxypropylcellulose) (HPC) 89 % of control

COc1cc([C@H]2OC[C@H]3[C@@H]2CO[C@@H]3c2cc(OC)c3c(c2)OCO3)cc(OC)c1OC
inactive: dose: 9.75 mg/kg/injection, schedule: Q01DX009 (ip), vehicle: saline + Tween-80 + alcohol 93 % of control | dose: 19.5 mg/kg/injection, schedule: Q01DX009 (ip), vehicle: saline + Tween-80 + alcohol 106 % of control | dose: 39.0 mg/kg/injection, schedule: Q01DX009 (ip), vehicle: saline + Tween-80 + alcohol 99 % of control | dose: 78.0 mg/kg/injection, schedule: Q01DX009 (ip), vehicle: saline + Tween-80 + alcohol 107 % of control

FC(F)(F)CO[Te](OCC(F)(F)F)(OCC(F)(F)F)OCC(F)(F)F
inactive: dose: 12.5 mg/kg/injection, schedule: Q01DX001 (ip), vehicle: saline with Tween-80 106 % of control
